Legend:
barnyardgrass [1] = assay: Test A preemergence; assay type: in vivo, Echinochloa crus-galli
Method in brief: (§1)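 Pre- and postemergence greenhouse screen. Soil: loam + sand. Spray carrier: solvent mixture, non-phytotoxic, with surfactant. Post timing at 1–2 leaves, height 2–10 cm. Readout: visual injury on a 0–100 scale roughly 10 days after application, untreated plants as reference.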

morningglory [2] = assay: Test A preemergence; assay type: in vivo, Ipomoea spp.
Method in brief: as §1

wheat [3] = assay: Test A preemergence; assay type: in vivo, Triticum aestivum
Method in brief: as §1

corn = assay: Test A preemergence; assay type: in vivo, Zea mays
Method in brief: as §1

morningglory [4] = assay: Test A postemergence; assay type: in vivo, Ipomoea spp.; conditions: 0 to 100 scale where 0 is no effect and 100 is complete control
Method in brief: as §1

wheat [5] = assay: Test A postemergence; assay type: in vivo, Triticum aestivum; conditions: 0 to 100 scale where 0 is no effect and 100 is complete control
Method in brief: as §1

sedge, umbrella = assay: Test B flooded paddy test; assay type: in vivo, Cyperus difformis; conditions: Flood, 250 g ai/ha; 0 to 100 scale where 0 is no effect and 100 is complete control
Method in brief: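 Post-emergence paddy-water application at the 2-leaf stage, with 3 cm flood kept for the whole test. Response was judged visually relative to controls after 13 to 15 greenhouse days, 0 indicating no effect and 100 complete control.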

blackgrass = assay: Test C postemergence; assay type: in vivo, Alopecurus myosuroides
Method in brief: (§2)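 Rated visually on 0–100 (100 = complete control) after 13–15 days under glass. Treatments went onto freshly seeded loam/sand soil or onto emerged plants at the 1- to 4-leaf stage, using a surfactant-containing solvent formulation.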

large (Lg) crabgrass = assay: Test C postemergence; assay type: in vivo, Digitaria sanguinalis
Method in brief: as §2

johnsongrass = assay: Test C postemergence; assay type: in vivo, Sorghum halepense
Method in brief: as §2

morningglory [6] = assay: Test C postemergence; assay type: in vivo, Ipomoea coccinea
Method in brief: as §2

yellow nutsedge = assay: Test C postemergence; assay type: in vivo, Cyperus esculentus
Method in brief: as §2

barnyardgrass [7] = assay: Test C postemergence; assay type: in vivo, Echinochloa crus-galli
Method in brief: as §2

oilseed rape = assay: Test C postemergence; assay type: in vivo, Brassica napus
Method in brief: as §2

kochia = assay: Test C postemergence; assay type: in vivo, Kochia scoparia
Method in brief: as §2

[8] = 500 g ai/ha, 0 to 100 scale where 0 is no effect and 100 is complete control
[9] = 16 g ai/ha, postemergence, 0 is no effect, 100 is complete control
[10] = 31 g ai/ha, postemergence, visual rating, scale 0 to 100 (0 no effect, 100 complete control), 13 to 15 days
[11] = 125 g ai/ha, postemergence, visual rating, scale 0 to 100 (0 no effect, 100 complete control)
[12] = Postemergence, 62 g ai/ha, scale 0 to 100 (0 no effect, 100 complete control), 13 to 15 days

FC(F)c1cnn(-c2c(Br)cccc2Oc2ncc(Cl)cn2)c1 [Compound 232]
Barnyardgrass plant response rating (0 to 100 scale, 0 is no effect, 100 is complete control) (barnyardgrass [1]; 125 g ai/ha): 60
Barnyardgrass plant response rating (barnyardgrass [1]; [8]): 100
Morningglory plant response rating (0 to 100 scale) (morningglory [2]; 125 g ai/ha): 20
Morningglory plant response rating (morningglory [2]; [8]): 90
Wheat plant response rating (0 to 100 scale) (wheat [3]; 125 g ai/ha): 0
Wheat plant response rating (wheat [3]; [8]): 10
Corn plant response rating (0 to 100 scale) (corn; 125 g ai/ha): 0
Corn plant response rating (corn; [8]): 60
Morningglory plant response rating (morningglory [4]; 125 g ai/ha): 80
Plant response rating, Morningglory (morningglory [4]; 500 g ai/ha): 90
Wheat plant response rating (wheat [5]; 125 g ai/ha): 20
Plant response rating, Wheat (wheat [5]; 500 g ai/ha): 50
Plant response rating, Sedge, Umbrella (sedge, umbrella): 80
Plant response rating (0 to 100), Blackgrass (blackgrass; [9]): 10
Blackgrass plant response rating (blackgrass; [10]): 0
Plant response rating, Blackgrass (blackgrass; [11]): 25
Plant response rating, Blackgrass (blackgrass; [12]): 5
Plant response rating (0 to 100), Crabgrass, Large (large (Lg) crabgrass; [9]): 5
Crabgrass, Large plant response rating (large (Lg) crabgrass; [10]): 5
Plant response rating, Crabgrass, Large (large (Lg) crabgrass; [11]): 5
Plant response rating, Crabgrass, Large (large (Lg) crabgrass; [12]): 5
Plant response rating (0 to 100), Johnsongrass (johnsongrass; [9]): 0
Johnsongrass plant response rating (johnsongrass; [10]): 0
Plant response rating, Johnsongrass (johnsongrass; [11]): 5
Plant response rating, Johnsongrass (johnsongrass; [12]): 5
Plant response rating (0 to 100), Morningglory (morningglory [6]; [9]): 70
Morningglory plant response rating (morningglory [6]; [10]): 80
Plant response rating, Morningglory (morningglory [6]; [11]): 85
Plant response rating, Morningglory (morningglory [6]; [12]): 55
Plant response rating (0 to 100), Nutsedge, Yellow (yellow nutsedge; [9]): 5
Nutsedge, Yellow plant response rating (yellow nutsedge; [10]): 5
Plant response rating, Nutsedge, Yellow (yellow nutsedge; [11]): 5
Plant response rating, Nutsedge, Yellow (yellow nutsedge; [12]): 5
Plant response rating (0 to 100), Barnyardgrass (barnyardgrass [7]; [9]): 10
Barnyardgrass plant response rating (barnyardgrass [7]; [10]): 5
Plant response rating, Barnyardgrass (barnyardgrass [7]; [11]): 20
Plant response rating, Barnyardgrass (barnyardgrass [7]; Postemergence, 62 g ai/ha, scale 0 to 100 (0 no effect, 100 complete control)): 10
Plant response rating (0 to 100), Oilseed Rape (oilseed rape; [9]): 5
Oilseed Rape plant response rating (oilseed rape; [10]): 50
Plant response rating, Oilseed Rape (oilseed rape; [11]): 60
Plant response rating, Oilseed Rape (oilseed rape; [12]): 5
Plant response rating (0 to 100), Kochia (kochia; [9]): 85
Kochia plant response rating (kochia; [10]): 85
Plant response rating, Kochia (kochia; [11]): 98
Plant response rating, Kochia (kochia; [12]): 90

Source: patent US9695155B2, “Herbicidal substituted pyrimidinyloxy benzene compounds” (E. I. DU PONT DE NEMOURS AND COMPANY, priority 2013, dated 2017)
